Earlier results on 1 compound are cited in patent US20170224936A1, “Nasal treatment delivery device with carbon dioxide and saline, and methods” (priority 2016, published 2017).

For data set [1] the following is noted: carbon dioxide gas treatments per Capnia prior art to Rasor et al.

On to `O=C=O` [CO(2), carbon dioxide], for which the sneezes entry (20-second exposure, compared with no treatment, p=0.05) was “significant reduction”. For the setting “after pretreatment with CO(2)”, the “histamine levels in ipsilateral nasal secretions” value is “did not increase”. Moreover, the ipsilateral secretion weights result (compared with no treatment) is “numerically reduced”. For the setting “compared with no treatment, p=0.01”, the “bilateral runny nose symptoms” value is reported as “significant reduction”. Under “compared with no treatment, p=0.04”, the contralateral secretion weights entry is “significant reduction”. Further, for the setting “during exposure to CO(2)”, the sensation during exposure result was “transient burning sensation”. The severe stinging entry in data set [1] was “had occurred”.
